What was measured:
pool of microorganisms [1] = assay: Rapid decontamination and long term preservation challenge test in titanium dioxide mineral slurry (pH 8.35); assay type: cell-based; conditions: for concentration, used alone, obtaining 4 log10 reduction in microorganisms: 48 hours after second inoculation at seven days; for effective concentration, used alone (4 log10 reduction): pH 8.35, 30 min after initial inoculation
Description: (§1) The antimicrobial profiles of DBNPA, BNPD, and a combination of DBNPA-BNPD (3:1 w/w) are tested in a commercial water-based latex (UCAR Latex 626 available from The Dow Chemical Company), and a generic mineral slurry sample. Commercial latexes vary in pH values from slightly acidic to basic. For the purpose of this study, a latex with a basic pH (8.7) is selected, as it is known that both BNPD and DBNPA have limited chemical stability at alkaline pH. Mineral slurries vary in pH, but most often they are alkaline. For the purpose of this study, a titanium dioxide slurry with pH of 8.35 was selected.
(§2) Both the latex and the mineral slurry are free of contamination prior to testing. At time zero, the test matrices are inoculated with a pool of microorganisms (listed below) to a final concentration of 5×10^6 CFU/ml. Aliquots of the contaminated samples are weighed into a series of sterile containers followed by addition of the appropriate volume of biocide required to achieve the desired concentration. A control sample, lacking biocide, is included in each evaluation. Following biocide addition, samples are thoroughly mixed and aliquots are removed and streaked to tryptic soy agar plates, at various time points, for the enumeration of surviving microorganisms. All agar plates are incubated at 30° C. for 72 hours prior to assessment of viable bacteria. In all the ensuing results, a minimum of 4 log10 reduction in microorganism concentration, as compared to the control sample, is considered significant efficacy.
Microorganisms: Twenty-four hour tryptic soy broth cultures are combined in equal parts for formulation inoculation at a final concentration of 5×10^6 CFU/ml. Organisms utilized: Pseudomonas aeruginosa (ATCC#15442), Pseudomonas aeruginosa (ATCC#10145), Staphylococcus aureus (ATCC#6538), Burkholderia cepacia (ATCC#25416), Pseudomonas fluorescens B (environmental isolate), Pseudomonas oleovorans (environmental isolate), Enterococcus sulfureus (environmental isolate). […] The samples are stored at ambient conditions for three or seven days, respectively, at which point a second inoculation is administered, to test the long term preservation efficacy of the biocides. Aliquots are removed at 4 h and/or 24 h or 48 h following the second inoculation, and streaked on tryptic soy agar plates, for the enumeration of surviving microorganisms.
(§3) Synergy: The synergy indexes reported here are measured and calculated using Formula 1. In this approach, a synergy index (SI) of 1 indicates additivity. If the synergy index is less than 1, synergy has occurred, while a synergy index greater than 1 indicates antagonism.
(§4) Synergy Index=CA/Ca+CB/Cb (1)
Ca=concentration of antimicrobial A, alone, producing a predetermined end-point […]

pool of microorganisms [2] = assay: Rapid decontamination and long term preservation challenge test in UCAR Latex 626 (pH 8.7); assay type: cell-based; conditions: for active concentration, used alone, achieving 4 log10 reduction in bacterial concentration: UCAR Latex 626, pH 8.7, 1 h after initial inoculum; for concentration, used alone, achieving decontamination: 24 h after second inoculation at seven days
Description: as §1, §2
Microorganisms: Twenty-four hour tryptic soy broth cultures are combined in equal parts for formulation inoculation at a final concentration of 5×10^6 CFU/ml. Organisms utilized: Pseudomonas aeruginosa (ATCC#15442), Pseudomonas aeruginosa (ATCC#10145), Staphylococcus aureus (ATCC#6538), Burkholderia cepacia (ATCC#25416), Pseudomonas fluorescens B (environmental isolate), Pseudomonas oleovorans (environmental isolate), Enterococcus sulfureus (environmental isolate). To assess the rapid decontamination efficacy of the biocides, aliquots are removed at 60 minutes following the initial inoculation, and streaked on tryptic soy agar plates for the enumeration of surviving microorganisms. The samples are stored at ambient conditions for three or seven days, respectively, at which point a second inoculation is administered, to test the long term preservation efficacy of the biocides. Aliquots are removed at 4 h and/or 24 h or 48 h following the second inoculation, and streaked on tryptic soy agar plates, for the enumeration of surviving microorganisms.
as §3, §4
Ca=concentration of antimicrobial A, alone, producing a predetermined end-point
Cb=concentration of antimicrobial B, alone, producing a predetermined end-point
CA and CB=the concentrations of antimicrobials A and B, respectively, together in a mixture, that produce a predetermined end-point

[3] = going from pH 6 to pH 8.9; cited from earlier work

Row | SMILES | concentration, used alone, obtaining 4 log10 reduction in microorganisms (pool of microorganisms [1]) | effective concentration, used alone (4 log10 reduction) (pool of microorganisms [1]) | active concentration, used alone, achieving 4 log10 reduction in bacterial concentration (pool of microorganisms [2]) | concentration, used alone, achieving decontamination (pool of microorganisms [2]; UCAR Latex 626) | factor of increase of rate of disappearance [3] | effective active concentration (4 log10 reduction) (pool of microorganisms [2]; UCAR Latex 626, 24 h after second inoculation at three days)
1 | N#CC(Br)(Br)C(N)=O [DBNPA, 2,2-dibromo-3-nitrilopropionamide] | 400 ppm | 23.4 ppm | 140 ppm | did not achieve decontamination | about 450 | –
2 | O=[N+]([O-])C(Br)(CO)CO [BNPD, 2-bromo-2-nitro-1,3-propanediol] | 35.1 ppm | > 600 ppm | > 600 ppm | 95.7 ppm | – | 95.7 ppm
